ChEMBL document CHEMBL2331461, “Microfluidics assisted synthesis and bioevaluation of sinomenine derivatives as antiinflammatory agents” (Eur J Med Chem, 2013)
Active and inactive are the calls of the source. The rule behind the calls is not given here.

Legend:
[1] = biological target: Tumor necrosis factor (Homo sapiens) (UniProt P01375); test: Inhibition of TNFalpha (unknown origin)-induced NF-kappaB activation in mouse NIH/3T3 cells assessed as inhibition of NF-kappaB binding to DNA at 20 uM after 6 hrs by luciferase reporter gene assay; format: cell-based; settings: NIH3T3
Sequence of Tumor necrosis factor (Homo sapiens) (P01375 whole entry): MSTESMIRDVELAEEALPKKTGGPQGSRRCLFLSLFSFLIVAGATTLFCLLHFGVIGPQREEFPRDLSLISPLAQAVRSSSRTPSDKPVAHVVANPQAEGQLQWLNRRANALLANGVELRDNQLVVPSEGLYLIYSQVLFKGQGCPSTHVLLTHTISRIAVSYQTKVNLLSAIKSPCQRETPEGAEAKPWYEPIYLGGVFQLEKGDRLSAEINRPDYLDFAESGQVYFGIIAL

[2] = system: NIH3T3; test: Cytotoxicity against mouse NIH/3T3 cells assessed as growth inhibition after 24 hrs by MTT assay; format: cell-based
[3] = system: Mus musculus; test: Antiinflammatory activity in ICR mouse assessed as inhibition of lambda-carrageenan-induced paw edema at 15 to 30 mg/kg, ip administered 2 hrs prior to carrageenan challenge measured after 6 to 18 hrs; format: functional, organism-based
[4] = system: Mus musculus; test: Antiinflammatory activity in ICR mouse assessed as inhibition of lambda-carrageenan-induced paw edema at 10 mg/kg, ip administered 2 hrs prior to carrageenan challenge measured after 2 to 18 hrs; format: functional, organism-based; set-up: dose 10 mg/kg
[5] = Mus musculus, NIH3T3, 24 h, read-out: IC50

Row | Compound | inhibition [1] | IC50 [2, 5] | other results
1 | COC(=O)[C@H]1C(c2ccc(OC)cc2)=NO[C@@H]1c1cc(OC)c(O)c2c1C[C@@H]1[C@@H]3C=C(OC)C(=O)C[C@]23CCN1C | Active | > 100 µM | –
2 | COC1=C[C@H]2[C@H]3Cc4c(/C=C/C(=O)OC5CCCCC5)cc(OC)c(O)c4[C@@]2(CCN3C)CC1=O | – | – | IC50 ([2]; nih3t3): ND(Insoluble)
3 | COC(=O)[C@@H]1C(c2ccc(C)cc2)=NO[C@H]1c1cc(OC)c(O)c2c1C[C@@H]1[C@@H]3C=C(OC)C(=O)C[C@]23CCN1C | Active | 78 µM | –
4 | CCCCOC(=O)/C=C/c1cc(OC)c(O)c2c1C[C@@H]1[C@@H]3C=C(OC)C(=O)C[C@]23CCN1C | Active | 80 µM | –
5 | COC(=O)/C(C)=C/c1cc(OC)c(O)c2c1C[C@@H]1[C@@H]3C=C(OC)C(=O)C[C@]23CCN1C | – | > 100 µM | –
6 | CCCCCCOC(=O)/C=C/c1cc(OC)c(O)c2c1C[C@@H]1[C@@H]3C=C(OC)C(=O)C[C@]23CCN1C | Active | 38.9 µM | inhibition [3]: Active
7 | COC(=O)[C@H]1C(c2ccc(C)cc2)=NO[C@@H]1c1cc(OC)c(O)c2c1C[C@@H]1[C@@H]3C=C(OC)C(=O)C[C@]23CCN1C | Active | 80.7 µM | –
8 | COC(=O)[C@@H]1C(c2cccc(Cl)c2)=NO[C@H]1c1cc(OC)c(O)c2c1C[C@@H]1[C@@H]3C=C(OC)C(=O)C[C@]23CCN1C | inactive | 78.3 µM | –
9 | COC1=C[C@H]2[C@H]3Cc4c(/C=C/C(=O)OCC(C)C)cc(OC)c(O)c4[C@@]2(CCN3C)CC1=O | – | > 100 µM | –
10 | COC1=C[C@@H]2[C@@H]3Cc4ccc(OC)c(O)c4[C@]2(CCN3C)CC1=O [SINOMENINE] | inactive | > 100 µM | –
11 | COC(=O)[C@H]1C(c2ccccc2)=NO[C@@H]1c1cc(OC)c(O)c2c1C[C@@H]1[C@@H]3C=C(OC)C(=O)C[C@]23CCN1C | Active | > 100 µM | –
12 | COC(=O)[C@@H]1C(c2ccccc2)=NO[C@H]1c1cc(OC)c(O)c2c1C[C@@H]1[C@@H]3C=C(OC)C(=O)C[C@]23CCN1C | inactive | > 100 µM | –
13 | COC(=O)[C@@H]1C(c2ccc(OC)cc2)=NO[C@H]1c1cc(OC)c(O)c2c1C[C@@H]1[C@@H]3C=C(OC)C(=O)C[C@]23CCN1C | inactive | 83.9 µM | –
14 | COC(=O)[C@H]1C(c2ccc(Cl)cc2)=NO[C@@H]1c1cc(OC)c(O)c2c1C[C@@H]1[C@@H]3C=C(OC)C(=O)C[C@]23CCN1C | Active | 66.7 µM | –
15 | COC(=O)[C@@H]1C(c2ccc(Br)cc2)=NO[C@H]1c1cc(OC)c(O)c2c1C[C@@H]1[C@@H]3C=C(OC)C(=O)C[C@]23CCN1C | inactive | 53.1 µM | –
16 | COCCOC(=O)/C=C/c1cc(OC)c(O)c2c1C[C@@H]1[C@@H]3C=C(OC)C(=O)C[C@]23CCN1C | – | > 100 µM | –
17 | COC(=O)[C@@H]1C(c2cccc(C)c2)=NO[C@H]1c1cc(OC)c(O)c2c1C[C@@H]1[C@@H]3C=C(OC)C(=O)C[C@]23CCN1C | Active | 78.3 µM | –
18 | COc1ccc2c(c1)c(CC(=O)O)c(C)n2C(=O)c1ccc(Cl)cc1 | – | – | inhibition [4]: Active
19 | COC1=C[C@H]2[C@H]3Cc4c(/C=C/C(=O)OC(C)(C)C)cc(OC)c(O)c4[C@@]2(CCN3C)CC1=O | – | > 100 µM | –
20 | CCCCC(CC)COC(=O)/C=C/c1cc(OC)c(O)c2c1C[C@@H]1[C@@H]3C=C(OC)C(=O)C[C@]23CCN1C (some centres undefined) | – | 4.8 µM | –
21 | CCOC(=O)/C=C/c1cc(OC)c(O)c2c1C[C@@H]1[C@@H]3C=C(OC)C(=O)C[C@]23CCN1C | – | > 100 µM | –
22 | COC(=O)/C=C/c1cc(OC)c(O)c2c1C[C@@H]1[C@@H]3C=C(OC)C(=O)C[C@]23CCN1C | – | > 100 µM | –
23 | COC(=O)[C@H]1C(c2cccc(C)c2)=NO[C@@H]1c1cc(OC)c(O)c2c1C[C@@H]1[C@@H]3C=C(OC)C(=O)C[C@]23CCN1C | Active | > 100 µM | –
24 | COC(=O)[C@H]1C(c2ccc(Br)cc2)=NO[C@@H]1c1cc(OC)c(O)c2c1C[C@@H]1[C@@H]3C=C(OC)C(=O)C[C@]23CCN1C | Active | 55.7 µM | –
25 | COC(=O)[C@@H]1C(c2ccc(Cl)cc2)=NO[C@H]1c1cc(OC)c(O)c2c1C[C@@H]1[C@@H]3C=C(OC)C(=O)C[C@]23CCN1C | inactive | 75.1 µM | –
26 | COC(=O)[C@H]1C(c2cccc(Cl)c2)=NO[C@@H]1c1cc(OC)c(O)c2c1C[C@@H]1[C@@H]3C=C(OC)C(=O)C[C@]23CCN1C | Active | 71.3 µM | –
